Reference: US7993824B2, “Compositions and methods for determining the susceptibility of a pathogenic virus to protease inhibitors” (Monogram Biosciences, Inc., priority 2002, dated 2011)

What was measured:
[1] = tested on: HIV-1 clones containing I50V; test: PhenoSense assay on protease clones (I50V; I50V+L90M; I50V+N88S) isolated from resistance test vector pools of one patient sample; format: cell-based; conditions: for mean fold change (FC), reduction in susceptibility: clones with I50V only, or I50V plus L90M
Text: Drug names are abbreviated as follows: APV, amprenavir; IDV, indinavir; LPV, lopinavir; NFV, nelfinavir; RTV, ritonavir; SQV, saquinavir; ATV, atazanavir (BMS 232632).
(§1) A resistance test vector (“RTV”) can then be constructed by incorporating the amplified viral gene sequences into a replication defective viral vector by using any method known in the art of incorporating gene sequences into a vector. In one embodiment, restrictions enzymes and conventional cloning methods are used. See Sambrook et al., 2001, Molecular Cloning: A Laboratory Manual, Cold Spring Harbor Laboratory, 3rd ed., NY; and Ausubel et al., 1989, Current Protocols in Molecular Biology, Greene Publishing Associates and Wiley Interscience, NY. In a preferred embodiment, ApaI and PinAI restriction enzymes are used. Preferably, the replication defective viral vector is the indicator gene viral vector (“IGVV”). In a preferred embodiment, the viral vector contains a means for detecting replication of the RTV. Preferably, the viral vector contains a luciferase expression cassette.
(§2) The assay can be performed by first co-transfecting host cells with RTV DNA and a plasmid that expresses the envelope proteins of another retrovirus, for example, amphotropic murine leukemia virus (MLV). Following transfection, virus particles can be harvested and used to infect fresh target cells. The completion of a single round of viral replication can be detected by the means for detecting replication contained in the vector. In a preferred embodiment, the completion of a single round of viral replication results in the production of luciferase. Serial concentrations of anti-viral agents can be added at either the transfection step or the infection step.
(§3) Susceptibility to the anti-viral agent can be measured by comparing the replication of the vector in the presence and absence of the anti-viral agent. For example, susceptibility to the anti-viral agent can be measured by comparing the luciferase activity in the presence and absence of the anti-viral agent. Susceptible viruses would produce low levels of luciferase activity in the presence of antiviral agents, whereas viruses with reduced susceptibility would produce higher levels of luciferase activity.
Clones from the population were selected so as to isolate some clones with the N88S mutation and some without it. Resistance test vector pools constructed from the original plasma sample (Petropoulos et al., 2000, Antimicrob Agents Chemother 44:920-8) were transformed into E. Coli, and plasmid DNA from individual colonies was screened in the PhenoSense® assay for […].

[2] = tested on: HIV-1 from the patient sample; test: PHENOSENSE HIV phenotypic susceptibility assay on patient plasma samples (IC50 fold change vs NL4-3 reference); format: cell-based; conditions: for fold change in IC50: patient sample with L10I, I13V, E35D, M36I, R41K, I50V, L63P, A71V, N88N/S, L90M in HIV protease, vs NL4-3 reference
Method: In a preferred embodiment, the phenotypic analysis is performed using PHENOSENSE™ (ViroLogic Inc., South San Francisco, Calif.). See Petropoulos et al., 2000, Antimicrob. Agents Chemother. 44:920-928; U.S. Pat. Nos. 5,837,464 and 6,242,187. PHENOSENSE™ is a phenotypic assay that achieves the benefits of phenotypic testing and overcomes the drawbacks of previous assays. Because the assay has been automated, PHENOSENSE™ offers higher throughput under controlled conditions. The result is an assay that accurately defines the susceptibility profile of a patient's HIV isolates to all currently available antiretroviral drugs, and delivers results directly to the physician within about 10 to about 15 days of sample receipt. PHENOSENSE™ is accurate and can obtain results with only one round of viral replication, thereby avoiding selection of subpopulations of virus. The results are quantitative, measuring varying degrees of drug susceptibility, and sensitive—the test can be performed on blood specimens with a viral load of about 500 copies/mL and can detect minority populations of some drug-resistant virus at concentrations of 10% or less of total viral population. Furthermore, the results are reproducible and can vary by less than about 1.4-2.5 fold, depending on the drug, in about 95% of the assays performed.
PHENOSENSE™ can be used with nucleic acids from amplified viral gene sequences. As discussed in Section 5.4.1, the sample containing the virus may be a sample from a human or an animal infected with the virus or a sample from a culture of viral cells. In one embodiment, the viral sample comprises a genetically modified laboratory strain.
as §1, §2, §3
The phenotypic assay was conducted using the PHENOSENSE™ (Virologic, South San Francisco, Calif.) HIV assay (Petropoulos et al., 2000, Antimicrob. Agents Chemother. 44:920-928; U.S. Pat. Nos. 5,837,464 and 6,242,187). […]

HIV = conditions: patients using amprenavir as their first PI; as low as; cited from earlier work
[3] = I50V+N88S clones vs I50V clones

Row | Compound | mean fold change (FC), reduction in susceptibility [1] | fold change in IC50 [2] | also measured
1 | Cc1cccc(C)c1OCC(=O)N[C@@H](Cc1ccccc1)[C@@H](O)C[C@H](Cc1ccccc1)NC(=O)[C@H](C(C)C)N1CCCNC1=O [lopinavir] | 7-9 FC | 3.3 fold | fold decrease in IC50 in the presence of N88S (susceptibility increased) [1, 3]: 1.7 fold
2 | CC(C)c1nc(CN(C)C(=O)N[C@H](C(=O)N[C@@H](Cc2ccccc2)C[C@H](O)[C@H](Cc2ccccc2)NC(=O)OCc2cncs2)C(C)C)cs1 [ritonavir] | 12-20 FC | 11 fold | fold decrease in IC50 in the presence of N88S (susceptibility increased) [1, 3]: 1.4 fold
3 | Cc1c(O)cccc1C(=O)N[C@@H](CSc1ccccc1)[C@H](O)CN1C[C@H]2CCCC[C@H]2C[C@H]1C(=O)NC(C)(C)C [nelfinavir] | 7-10 FC | 5.3 fold | fold increase in IC50 in the presence of N88S (susceptibility decreased) [1, 3]: 2.1 fold
4 | COC(=O)N[C@H](C(=O)N[C@@H](Cc1ccccc1)[C@@H](O)CN(Cc1ccc(-c2ccccn2)cc1)NC(=O)[C@@H](NC(=O)OC)C(C)(C)C)C(C)(C)C [atazanavir] |  |  | fold increase in IC50 in the presence of N88S (susceptibility decreased) [1, 3]: 2.3 fold
5 | CC(C)(C)NC(=O)[C@@H]1C[C@@H]2CCCC[C@@H]2CN1C[C@@H](O)[C@H](Cc1ccccc1)NC(=O)[C@H](CC(N)=O)NC(=O)c1ccc2ccccc2n1 [saquinavir] |  | 3.6 fold | increase in FC with L90M ([1]; I50V plus L90M clones vs I50V only clones): 1.8 fold
6 | CC(C)(C)NC(=O)[C@@H]1CN(Cc2cccnc2)CCN1C[C@@H](O)C[C@@H](Cc1ccccc1)C(=O)N[C@H]1c2ccccc2C[C@H]1O [indinavir] |  | 1.4 fold | 
7 | CC(C)CN(C[C@@H](O)[C@H](Cc1ccccc1)NC(=O)O[C@H]1CCOC1)S(=O)(=O)c1ccc(N)cc1 [amprenavir] | 13-17 FC | 4.1 fold | fold change for a virus containing I50V, but not N88S ([1]; FIG. 7 bar 1 for APV): about 17 fold; fold change when the virus contained N88S in addition to I50V ([1]; FIG. 7 bar 2 for APV, wild type level): 1.2 FC; factor by which susceptibility was increased when N88S was present in combination with I50V [1, 3]: 14.5; reductions in susceptibility in patients who experienced viral load rebound (HIV): 2-3 fold; 99th percentile for the distribution of FC in genotypically wild-type viruses ([2]; genotypically wild-type viruses, PhenoSense Assay): 2.1 fold
